Reference: patent US10047105B2, “Gyrase inhibitors” (Merck Sharp & Dohme Corp., priority 2009, dated 2018)
Converted amounts (≈) assume the structure as drawn.

Experiments:
[1] = tested on: S. aureus ATCC 13709; experiment: MIC, antibacterial potency, S. aureus; type: cell-based
[2] = tested on: S. pneumoniae ATCC 51916; experiment: MIC, S. pneumoniae; type: cell-based
[3] = S. pneumoniae (Spn52), in µg/mL

CCc1[nH]c2nc(Sc3nc(C(=O)OC)cs3)nc(O)c2c1Br [700,282]
MIC, SA ([1]; S. aureus): ≤ 0.5 µg/mL | MIC Spn52 ([2]; S. pneumoniae): 4 µg/mL (≈ 9.63 µM)

CCc1[nH]c2nc(Sc3cnc4nccnc4c3)nc(N3CC4CCNC4C3)c2c1Cl.O=C(O)C(F)(F)F (stereo not drawn) [700,563]
MIC, SA ([1]; S. aureus): 1 µg/mL | MIC Spn52 ([2]; S. pneumoniae): 2 µg/mL

CCc1[nH]c2nc(Sc3cnc4c(N)nc(N)nc4c3)nc(N3CC(O)C3)c2c1Cl.O=C(O)C(F)(F)F.O=C(O)C(F)(F)F [700,448]
MIC, SA ([1]; S. aureus): 1 µg/mL | MIC Spn52 ([2]; S. pneumoniae): 2 µg/mL

CCc1[nH]c2nc(Sc3nc(C(=O)O)cs3)nc(NCCCNS(C)(=O)=O)c2c1Cl [700,342]
MIC, SA ([1]; S. aureus): > 64 µg/mL | MIC Spn52 ([2]; S. pneumoniae): > 64 µg/mL

CCc1[nH]c2nc(Oc3ccc(OC)nc3)nc(Oc3ccc(OC)nc3)c2c1Cl.O=C(O)C(F)(F)F [700,592]
MIC, SA ([1]; S. aureus): > 64 µg/mL | MIC Spn52 ([2]; S. pneumoniae): 4 µg/mL

CCOc1nc(Sc2ccc(NCCCOC)nn2)nc2[nH]c(CC)c(Cl)c12 [700,326]
MIC, SA ([1]; S. aureus): > 64 µg/mL | MIC Spn52 ([2]; S. pneumoniae): 32 µg/mL (≈ 75.7 µM)

CCc1[nH]c2nc(Nc3cnc4c(c3)nnn4C(C)C)nc(OC)c2c1Cl.O=C(O)C(F)(F)F [700,550]
MIC, SA ([1]; S. aureus): 1 µg/mL | MIC Spn52 ([2]; S. pneumoniae): 8 µg/mL

CCc1[nH]c2nc(Sc3cnc4nccnc4c3)nc(N3CCC(n4c(=O)[nH]c5cc(Cl)ccc54)CC3)c2c1Cl.O=C(O)C(F)(F)F [700,792]
MIC, SA ([1]; S. aureus (SA), in µg/mL): >64 | MIC Spn52 [2, 3]: >64

CCc1[nH]c2nc(Sc3cnc4cccnc4n3)nc(N3CC(NC(=O)OCc4ccccc4)C3)c2c1Br [700,390]
MIC, SA ([1]; S. aureus): ≤ 0.5 µg/mL | MIC Spn52 ([2]; S. pneumoniae): ≤ 0.5 µg/mL

CCc1[nH]c2nc(Sc3nc(C(=O)O)cs3)nc(N3CCC(=O)C3)c2c1Cl.O=C(O)C(F)(F)F [700,357]
MIC, SA ([1]; S. aureus): > 64 µg/mL | MIC Spn52 ([2]; S. pneumoniae): > 64 µg/mL

CCOc1nc(Sc2cc(=O)[nH]c(=O)[nH]2)nc2[nH]c(CC)c(Cl)c12 [700,347, 6-(5-chloro-4-ethoxy-6-ethyl-7H-pyrrolo[2,3-d]pyrimidin-2-ylthio)pyrimidine-2,4(1H,3H)-dione]
MIC, SA ([1]; S. aureus): 1 µg/mL (≈ 2.72 µM) | MIC Spn52 ([2]; S. pneumoniae): 8 µg/mL (≈ 21.7 µM)

CCc1[nH]c2nc(Sc3ccc4cc(C(=O)N5CC[C@@H](N)C5)cnc4c3)nc(N3CC[C@@H](N)C3)c2c1Cl [700,695]
MIC, SA ([1]; S. aureus): 16 µg/mL (≈ 29.8 µM) | MIC Spn52 ([2]; S. pneumoniae): 32 µg/mL (≈ 59.6 µM)

CCc1[nH]c2nc(Oc3cncnc3)nc(Oc3cncnc3)c2c1Cl.O=C(O)C(F)(F)F [700,466]
MIC, SA ([1]; S. aureus): 4 µg/mL | MIC Spn52 ([2]; S. pneumoniae): 16 µg/mL

CCOc1nc(Sc2cc(C(=O)NC3CC3)ccn2)nc2[nH]c(CC)c(Cl)c12 [700,306]
MIC, SA ([1]; S. aureus): > 64 µg/mL | MIC Spn52 ([2]; S. pneumoniae): > 64 µg/mL

CCc1[nH]c2nc(Sc3cnc4nccnc4c3)nc(N3CC(CN(C)C)C3)c2c1Cl.O=C(O)C(F)(F)F.O=C(O)C(F)(F)F [700,602]
MIC, SA ([1]; S. aureus): 4 µg/mL | MIC Spn52 ([2]; S. pneumoniae): 4 µg/mL

CCc1[nH]c2nc(Nc3cnc4c(c3)nnn4C(C)C)nc(N3CC[C@@H](N(C)C)C3)c2c1Cl.O=C(O)C(F)(F)F.O=C(O)C(F)(F)F [700,528]
MIC, SA ([1]; S. aureus): 8 µg/mL | MIC Spn52 ([2]; S. pneumoniae): 8 µg/mL

CCc1[nH]c2nc(Sc3cnc4nccnc4c3)nc(N3CC4CN(C(=O)OC(C)(C)C)C4C3)c2c1Cl (stereo not drawn) [700,571]
MIC, SA ([1]; S. aureus): 8 µg/mL (≈ 14.8 µM) | MIC Spn52 ([2]; S. pneumoniae): 8 µg/mL (≈ 14.8 µM)

CCOc1nc(Nc2cnc3c(cnn3C(C)C)c2)nc2[nH]c(CC)c(Br)c12.O=C(O)C(F)(F)F [700,381]
MIC, SA ([1]; S. aureus): 1 µg/mL | MIC Spn52 ([2]; S. pneumoniae): 8 µg/mL

CCc1[nH]c2nc(Sc3cnc4nccnc4c3)nc(N3CC4CC3CN4)c2c1Cl.O=C(O)C(F)(F)F (stereo not drawn) [700,655]
MIC, SA ([1]; S. aureus): > 64 µg/mL | MIC Spn52 ([2]; S. pneumoniae): 2 µg/mL

CCc1[nH]c2nc(Sc3cnc4nccnc4c3)nc(N3CC(CNC(=O)C4CNC4)C3)c2c1Cl [700,858]
MIC, SA ([1]; S. aureus (SA), in µg/mL): 8 | MIC Spn52 [2, 3]: >64

CCc1[nH]c2nc(Sc3cnc4nccnc4c3)nc(N3CC(N4CCOCC4)C3)c2c1Cl.O=C(O)C(F)(F)F.O=C(O)C(F)(F)F [700,606]
MIC, SA ([1]; S. aureus): 2 µg/mL | MIC Spn52 ([2]; S. pneumoniae): 4 µg/mL

CCc1[nH]c2nc(Sc3cc(-n4cccn4)nc(C)n3)nc(NCC3CCCO3)c2c1Cl (stereo not drawn) [700,373]
MIC, SA ([1]; S. aureus): > 64 µg/mL | MIC Spn52 ([2]; S. pneumoniae): > 64 µg/mL

CCc1[nH]c2nc(Sc3ccc4c(NC)ncnc4c3)nc(N3CCC(N)C3)c2c1Cl (stereo not drawn) [700,576]
MIC, SA ([1]; S. aureus): 8 µg/mL (≈ 17.6 µM) | MIC Spn52 ([2]; S. pneumoniae): 16 µg/mL (≈ 35.2 µM)

CCc1[nH]c2nc(Sc3cnc4cccnc4c3)nc(N3CC(NC)C3)c2c1Cl [700,713]
MIC, SA ([1]; S. aureus): 1 µg/mL (≈ 2.35 µM) | MIC Spn52 ([2]; S. pneumoniae): 2 µg/mL (≈ 4.7 µM)

CCc1[nH]c2nc(Sc3cnc4nccnc4c3)nc(N3CC4[C@H](C3)[C@@]4(N)C(N)=O)c2c1Cl.O=C(O)C(F)(F)F.O=C(O)C(F)(F)F (stereo partly drawn) [700,781]
MIC, SA ([1]; S. aureus): ≤ 0.5 µg/mL | MIC Spn52 ([2]; S. pneumoniae): 1 µg/mL

CCc1[nH]c2nc(Sc3cnc4nccnc4c3)nc(N3CCC(N4CCOCC4)C3)c2c1Cl (stereo not drawn) [700,429]
MIC, SA ([1]; S. aureus): ≤ 0.5 µg/mL | MIC Spn52 ([2]; S. pneumoniae): 2 µg/mL (≈ 4.02 µM)

CCc1[nH]c2nc(Sc3cnc4nccnc4c3)nc(N3CC(Oc4ccc(OC)cc4)C3)c2c1Cl.O=C(O)C(F)(F)F [700,668]
MIC, SA ([1]; S. aureus): 8 µg/mL | MIC Spn52 ([2]; S. pneumoniae): > 64 µg/mL

CCc1[nH]c2nc(Sc3cnc(C#N)c(F)c3)nc(N3CC(O)C3)c2c1Cl.O=C(O)C(F)(F)F.O=C(O)C(F)(F)F [700,422]
MIC, SA ([1]; S. aureus): > 64 µg/mL | MIC Spn52 ([2]; S. pneumoniae): > 64 µg/mL

CCc1[nH]c2nc(Sc3ccc4nnc(C(=O)NC[C@H](C)O)nc4c3)nc(N3CC(N)C3)c2c1Cl [700,611]
MIC, SA ([1]; S. aureus): 2 µg/mL (≈ 3.89 µM) | MIC Spn52 ([2]; S. pneumoniae): 8 µg/mL (≈ 15.6 µM)

CCc1[nH]c2nc(Sc3cnc4cccnc4c3)nc(N3C[C@@H]4[C@@H](N)[C@@H]4C3)c2c1Cl [700,817]
MIC, SA ([1]; S. aureus (SA), in µg/mL): <=0.5 | MIC Spn52 [2, 3]: <=0.5
